Experimental data taken from US9126945B2, “N-(3-carbamoylphenly)-1H-pyrazole-5-carboxamide derivatives and the use thereof for controlling animal pests” (BAYER INTELLECTUAL PROPERTY GMBH, priority 2011, dated 2015).

Assay: log P by HPLC, EEC Directive 79/831 Annex V.A8, method a)
Assay type: physicochemical
Settings: cell prints no method mark; Ex. 40 value equals the log P given under method a)
Protocol: (§1) ^a) Note regarding the determination of the log P values and mass detection The determination of the given log P values was carried out in accordance with EEC Directive 79/831 Annex V.A8 by HPLC (High Performance Liquid Chromatography) on a reversed-phase column (C18). Agilent 1100 LC system; 50*4.6 Zorbax Eclipse Plus C18 1.8 micron; mobile phase A: acetonitrile (0.1% formic acid); mobile phase B: water (0.09% formic acid); linear gradient from 10% acetonitrile to 95% acetonitrile in 4.25 min, then 95% acetonitrile for a further 1.25 min; oven temperature 55° C.; flow rate: 2.0 ml/min Mass detection is via an Agilend MSD system.
as §1, with “mass detection:” for “mass detection”, “2.0 ml/min.” for “2.0 ml/min”

**Q.** Which logP does the source give for Cn1nc(C(F)(F)F)c(C(F)(F)F)c1C(=O)Nc1cc(Br)c(Br)c(C(=O)NC2(C#N)CC2)c1 [Example 11] here?
**A.** 3.30

**Q.** Which logP does the source give for Cn1nc(C(F)(F)F)c(C(F)(F)F)c1C(=O)Nc1cc(Cl)c(Br)c(C(=O)NC2(C#N)CC2)c1 [Example 12] here?
**A.** 3.27

**Q.** Which logP does the source give for Cn1nc(C(F)(F)C(F)(F)F)c(C(F)(F)F)c1C(=O)Nc1cc(Br)c(Cl)c(C(=O)NC2(C#N)CC2)c1 [Example 13] here?
**A.** 3.67

**Q.** For CCC(=O)N(C(=O)c1cc(NC(=O)c2c(C(F)(F)F)c(C(F)(F)C(F)(F)F)nn2C)ccc1Cl)C1(C#N)CC1 [Example 15], which logP is on record?
**A.** 4.17

**Q.** For Cn1nc(C(F)(F)C(F)(F)F)c(C(F)(F)F)c1C(=O)Nc1cc(Cl)c(Br)c(C(=O)NC2(C#N)CC2)c1 [Example 16], which logP is on record?
**A.** 3.73

**Q.** Which logP does the source give for Cn1nc(C2(F)CC2)c(Cl)c1C(=O)Nc1ccc(Cl)c(C(=O)NC2(C#N)CC2)c1 [Example 17] here?
**A.** 2.50

**Q.** With CC(=O)N(C(=O)c1c(C(F)(F)F)c(C(F)(F)C(F)(F)F)nn1C)c1ccc(Cl)c(C(=O)N(C(C)=O)C2(C#N)CC2)c1 [Example 18] as the compound, how does the logP read?
**A.** 4.04

**Q.** Which logP does the source give for COC(=O)N(C(=O)c1c(C(F)(F)F)c(C(F)(F)C(F)(F)F)nn1C)c1ccc(Cl)c(C(=O)NC2(C#N)CC2)c1 [Example 19] here?
**A.** 3.69

**Q.** Which logP does the source give for CCOC(=O)N(C(=O)c1c(C(F)(F)F)c(C(F)(F)C(F)(F)F)nn1C)c1ccc(Cl)c(C(=O)NC2(C#N)CC2)c1 [Example 20] here?
**A.** 3.95

**Q.** For COC(=O)N(C(=O)c1c(C(F)(F)F)c(C(F)(F)C(F)(F)F)nn1C)c1ccc(Cl)c(C(=O)N(C(=O)OC)C2(C#N)CC2)c1 [Example 21], which logP is on record?
**A.** 4.32

**Q.** Which logP does the source give for CCOC(=O)N(C(=O)c1c(C(F)(F)F)c(C(F)(F)C(F)(F)F)nn1C)c1ccc(Cl)c(C(=O)N(C(=O)OCC)C2(C#N)CC2)c1 [Example 22] here?
**A.** 4.80

**Q.** With Cn1nc(C(F)(F)C(F)(F)F)c(C(F)(F)F)c1C(=O)N(C(=O)C(C)(C)C)c1ccc(Cl)c(C(=O)NC2(C#N)CC2)c1 [Example 23] as the compound, how does the logP read?
**A.** 4.40

**Q.** With Cc1cc(NC(=O)c2c(C(F)(F)F)c(C(F)(F)C(F)(F)F)nn2C)cc(C(=O)NC2(C#N)CC2)c1Cl [Example 24] as the compound, how does the logP read?
**A.** 3.51

**Q.** With C#CCN(C(=O)c1c(C(F)(F)F)c(C(F)(F)C(F)(F)F)nn1C)c1ccc(Cl)c(C(=O)NC2(C#N)CC2)c1 [Example 26] as the compound, how does the logP read?
**A.** 3.41

**Q.** With Cn1nc(C(F)(F)C(F)(F)F)c(C(F)(F)F)c1C(=O)Nc1ccc(F)c(C(=O)NC2(C#N)CC2)c1 [Example 27] as the compound, how does the logP read?
**A.** 3.21

**Q.** For Cn1nc(C(F)(F)C(F)(F)F)c(C(F)(F)F)c1C(=O)N(Cc1ccc(Cl)cc1)c1ccc(Cl)c(C(=O)NC2(C#N)CC2)c1 [Example 28], which logP is on record?
**A.** 4.30

**Q.** With CC(C)C(=O)N(C(=O)c1c(C(F)(F)F)c(C(F)(F)C(F)(F)F)nn1C)c1ccc(Cl)c(C(=O)NC2(C#N)CC2)c1 [Example 29] as the compound, how does the logP read?
**A.** 4.38

**Q.** Which logP does the source give for CC#CCN(C(=O)c1c(C(F)(F)F)c(C(F)(F)C(F)(F)F)nn1C)c1ccc(Cl)c(C(=O)NC2(C#N)CC2)c1 [Example 30] here?
**A.** 3.60

**Q.** Which logP does the source give for Cn1nc(C(F)(F)C(F)(F)F)c(C(F)(F)F)c1C(=O)N(Cc1ccccc1)c1ccc(Cl)c(C(=O)NC2(C#N)CC2)c1 [Example 31] here?
**A.** 3.97

**Q.** Which logP does the source give for Cn1nc(C(F)(F)C(F)(F)F)c(C(F)(F)F)c1C(=O)N(Cc1ccccn1)c1ccc(Cl)c(C(=O)NC2(C#N)CC2)c1 [Example 32] here?
**A.** 3.53

**Q.** For CCC(=O)N(C(=O)c1c(C(F)(F)F)c(C(F)(F)C(F)(F)F)nn1C)c1ccc(Cl)c(C(=O)NC2(C#N)CC2)c1 [Example 33], which logP is on record?
**A.** 3.91

**Q.** For CCn1nc(C(F)(F)C(F)(F)F)c(C(F)(F)F)c1C(=O)Nc1ccc(Cl)c(C(=O)NC2(C#N)CC2)c1 [Example 34], which logP is on record?
**A.** 3.53

**Q.** With CCCn1nc(C(F)(F)C(F)(F)F)c(C(F)(F)F)c1C(=O)Nc1ccc(Cl)c(C(=O)NC2(C#N)CC2)c1 [Example 35] as the compound, how does the logP read?
**A.** 3.87

**Q.** Which logP does the source give for CCCn1nc(C(F)(F)C(F)(F)F)c(C(F)(F)F)c1C(=O)Nc1ccc(F)c(C(=O)NC2(C#N)CC2)c1 [Example 36] here?
**A.** 3.74

**Q.** For CCn1nc(C(F)(F)C(F)(F)F)c(C(F)(F)F)c1C(=O)Nc1ccc(F)c(C(=O)NC2(C#N)CC2)c1 [Example 37], which logP is on record?
**A.** 3.44

**Q.** With CCn1nc(C(F)(F)C(F)(F)F)c(C(F)(F)F)c1C(=O)N(C)c1ccc(Cl)c(C(=O)NC2(C#N)CC2)c1 [Example 38] as the compound, how does the logP read?
**A.** 3.57

**Q.** For CCn1nc(C(F)(F)C(F)(F)F)c(C(F)(F)F)c1C(=O)N(C)c1ccc(Cl)c(C(=O)N(C)C2(C#N)CC2)c1 [Example 41], which logP is on record?
**A.** 3.85

**Q.** For CSc1c(C(F)(F)C(F)(F)F)nn(C)c1C(=O)Nc1ccc(Cl)c(C(=O)NC2(C#N)CC2)c1 [Example 42], which logP is on record?
**A.** 3.43

**Q.** For CCN(C(=O)c1c(C(F)(F)F)c(C(F)(F)C(F)(F)F)nn1CC)c1ccc(Cl)c(C(=O)NC2(C#N)CC2)c1 [Example 43], which logP is on record?
**A.** 3.68

**Q.** With Cn1nc(C(F)(F)C(F)(F)F)c(C(F)(F)F)c1C(=O)N(CC#N)c1ccc(Cl)c(C(=O)NC2(C#N)CC2)c1 [Example 44] as the compound, how does the logP read?
**A.** 3.25

**Q.** Which logP does the source give for Cn1nc(C(F)(F)C(F)(F)F)c([S+](C)[O-])c1C(=O)Nc1ccc(Cl)c(C(=O)NC2(C#N)CC2)c1 (centres unmarked) [Example 45] here?
**A.** 2.91

**Q.** For CCCn1nc(C(F)(F)C(F)(F)F)c(C(F)(F)F)c1C(=O)N(C)c1ccc(Cl)c(C(=O)N(C)C2(C#N)CC2)c1 [Example 46], which logP is on record?
**A.** 4.26

**Q.** Which logP does the source give for CCCn1nc(C(F)(F)C(F)(F)F)c(C(F)(F)F)c1C(=O)N(C)c1ccc(F)c(C(=O)N(C)C2(C#N)CC2)c1 [Example 47] here?
**A.** 4.05

**Q.** With CCn1nc(C(F)(F)C(F)(F)F)c(C(F)(F)F)c1C(=O)N(C)c1ccc(F)c(C(=O)N(C)C2(C#N)CC2)c1 [Example 48] as the compound, how does the logP read?
**A.** 3.76

**Q.** For Cn1nc(C(F)(F)C(F)(F)F)c(S(C)(=O)=O)c1C(=O)Nc1ccc(Cl)c(C(=O)NC2(C#N)CC2)c1 [Example 49], which logP is on record?
**A.** 2.47

**Q.** For CCCn1nc(C(F)(F)C(F)(F)F)c(C(F)(F)F)c1C(=O)N(CC)c1ccc(Cl)c(C(=O)N(CC)C2(C#N)CC2)c1 [Example 51], which logP is on record?
**A.** 4.68

**Q.** With CCN(C(=O)c1c(C(F)(F)F)c(C(F)(F)C(F)(F)F)nn1CC)c1ccc(Cl)c(C(=O)N(CC)C2(C#N)CC2)c1 [Example 52] as the compound, how does the logP read?
**A.** 4.26

**Q.** Which logP does the source give for CC(=O)N(C(=O)c1c(C(F)(F)F)c(C(F)(F)C(F)(F)F)nn1C)c1ccc(Cl)c(C(=O)NC2(C#N)CC2)c1 [Example 53] here?
**A.** 3.63

**Q.** With Cn1nc(C(F)(F)C(F)(F)F)c(C(F)(F)F)c1C(=O)N(Cc1cccnc1)c1ccc(Cl)c(C(=O)NC2(C#N)CC2)c1 [Example 54] as the compound, how does the logP read?
**A.** 2.85

**Q.** For C=C(C)CN(C(=O)c1c(C(F)(F)F)c(C(F)(F)C(F)(F)F)nn1C)c1ccc(Cl)c(C(=O)NC2(C#N)CC2)c1 [Example 55], which logP is on record?
**A.** 3.78

**Q.** For Cn1nc(C(F)(F)C(F)(F)F)c(C(F)(F)F)c1C(=O)N(Cc1ccncc1)c1ccc(Cl)c(C(=O)NC2(C#N)CC2)c1 [Example 56], which logP is on record?
**A.** 2.52

Same assay, conditions: reversed-phase C18 HPLC column; HPLC-MS method a), reversed-phase C18, acetonitrile/water with formic acid

**Q.** For Cn1nc(C(F)(F)C(F)(F)F)c(C(F)(F)F)c1C(=O)Nc1ccc(Cl)c(C(=O)O)c1 [2-Chloro-5-({[1-methyl-3-(pentafluoroethyl)-4-(trifluoromethyl)-1H-pyrazol-5-yl]carbonyl}amino)benzenecarboxylic acid], which chromatographic logP is on record?
**A.** 3.18

**Q.** With N#CC1(NC(=O)c2cc([N+](=O)[O-])ccc2Cl)CC1 [2-chloro-N-(1-cyanocyclopropyl)-5-nitrobenzamide] as the compound, how does the chromatographic logP read?
**A.** 1.52

**Q.** With Cn1nc(C2(Cl)CC2)c(Cl)c1C(=O)O [4-Chloro-3-(1-chlorocyclopropyl)-1-methyl-1H-pyrazole-5-carboxylic acid] as the compound, how does the chromatographic logP read?
**A.** 1.9

**Q.** For Cn1nc(C2(F)CC2)c(Cl)c1C(=O)O [4-Chloro-3-(1-fluorocyclopropyl)-1-methyl-1H-pyrazole-5-carboxylic acid], which chromatographic logP is on record?
**A.** 3.07

**Q.** For N#CC1(NC(=O)c2cc(N)ccc2Cl)CC1 [5-Amino-2-chloro-N-(1-cyanocyclopropyl)benzamide], which chromatographic logP is on record?
**A.** 0.82

**Q.** With CCOC(=O)c1c(Cl)c(C2(Cl)CC2)nn1C [Ethyl 4-chloro-3-(1-chlorocyclopropyl)-1-methyl-1H-pyrazole-5-carboxylate] as the compound, how does the chromatographic logP read?
**A.** 3.52

**Q.** For CCOC(=O)c1c(Cl)c(C2(F)CC2)nn1C [Ethyl 4-chloro-3-(1-fluorocyclopropyl)-1-methyl-1H-pyrazole-5-carboxylate], which chromatographic logP is on record?
**A.** 3.07

**Q.** Which chromatographic logP does the source give for CC(=O)N(C(=O)c1cc(NC(=O)c2c(C(F)(F)F)c(C(F)(F)C(F)(F)F)nn2C)ccc1Cl)C1(C#N)CC1 [Example 40, N-{3-[Acetyl(1-cyanocyclopropyl)carbamoyl]-4-chlorophenyl}-1-methyl-3-(pentafluoroethyl)-4-(trifluoromethyl)-1H-pyrazole-5-carboxamide] here?
**A.** 3.81

**Q.** With CCCn1nc(C(F)(F)C(F)(F)F)c(C(F)(F)F)c1C(=O)N(CC)c1ccc(Cl)c(C(=O)NC2(C#N)CC2)c1 [Example 50, N-{4-Chloro-3-[(1-cyanocyclopropyl)carbamoyl]phenyl}-N-ethyl-3-(pentafluoroethyl)-1-propyl-4-(trifluoromethyl)-1H-pyrazole-5-carboxamide] as the compound, how does the chromatographic logP read?
**A.** 4.06

Same assay, conditions: reversed-phase HPLC column (C18); HPLC-MS, method note not marked

**Q.** Which chromatographic logP does the source give for CSc1c(C(F)(F)C(F)(F)F)nn(C)c1C(=O)O [1-Methyl-4-(methylsulphanyl)-3-(pentafluoroethyl)-1H-pyrazole-5-carboxylic acid] here?
**A.** 3.51

Same assay, conditions: reversed-phase HPLC column (C18); cell prints no method mark; Ex. 40 value equals the log P given under method a)

**Q.** Which chromatographic logP does the source give for CC(=O)N(C(=O)c1cc(NC(=O)c2c(C(F)(F)F)c(C(F)(F)C(F)(F)F)nn2C)ccc1Cl)C1(C#N)CC1 [Example 40, N-{3-[Acetyl(1-cyanocyclopropyl)carbamoyl]-4-chlorophenyl}-1-methyl-3-(pentafluoroethyl)-4-(trifluoromethyl)-1H-pyrazole-5-carboxamide] here?
**A.** 3.81

**Q.** For CCCn1nc(C(F)(F)C(F)(F)F)c(C(F)(F)F)c1C(=O)N(CC)c1ccc(Cl)c(C(=O)NC2(C#N)CC2)c1 [Example 50, N-{4-Chloro-3-[(1-cyanocyclopropyl)carbamoyl]phenyl}-N-ethyl-3-(pentafluoroethyl)-1-propyl-4-(trifluoromethyl)-1H-pyrazole-5-carboxamide], which chromatographic logP is on record?
**A.** 4.06
